The text below walks through data of patent publication US20230159510A1, “NOVEL PRMT5 INHIBITORS” (AMGEN INC., priority 2020, published 2023).

The target of assay [1] is PRMT5/MEP50 (Homo sapiens, UniProt O14744). In words: MTase-Glo methyl transferase assay, Method A (Histone H4 peptide, 1 µM MTA, 24 h pre-incubation). The assay is classed as biochemical. Also on record: made in house. The conditions noted are these: read-out: PRMT5 MTase Glo Ki (nM, Meth. A). On the procedure: Method A: The PRMT5 inhibitory activity of test compounds was determined using the MTase-Glo™ assay (Promega), which monitors the product (S-adenosyl homocysteine or SAH) of methyltransferase reactions. The PRMT5 MTase-Glo assay was conducted in a 384-well white ProxiPlate (PerkinElmer) in a total volume of 12 µL. The PRMT5 enzymatic reaction (in 4 µL) contained 10 nM PRMT5/MEP50 (produced at Amgen), 5 µM S-adenosyl methionine (SAM, Promega), 1 µM Histone H4 (1-21)-Lys(Biotin) (Anaspec), 1 µM 5′-methylthioadenosine (MTA, Sigma) and two-fold serially diluted compounds in a reaction buffer of 50 mM Tris (pH 8.0), 50 mM NaCl, 0.01% Tween 20, 0.01% BSA, and 1 mM DTT. Test compounds were pre-incubated with PRMT5/MEP50, SAM, and MTA for 24 hours before addition of Histone H4 peptide to initiate the PRMT5 reaction. The reaction was allowed to proceed for 2 hours at room temperature and was then terminated by addition of 2 µL of 3X MTase-Glo™ Reagent (Promega) and 150 µM EPZ015666 (Sigma). After a 30-minute incubation at room temperature, 6 µL of MTase-Glo™ Detection Solution (Promega) was added and the plate was incubated at room temperature for an additional 30 minutes. The light signal corresponding to the amount of SAH produced by the PRMT5 reaction was subsequently measured using an Envision multimode reader (PerkinElmer). IC50 and KI values were obtained by analyzing dose-response curves using Genedata Screener (Genedata).
Sequence of PRMT5/MEP50 (O14744 whole entry): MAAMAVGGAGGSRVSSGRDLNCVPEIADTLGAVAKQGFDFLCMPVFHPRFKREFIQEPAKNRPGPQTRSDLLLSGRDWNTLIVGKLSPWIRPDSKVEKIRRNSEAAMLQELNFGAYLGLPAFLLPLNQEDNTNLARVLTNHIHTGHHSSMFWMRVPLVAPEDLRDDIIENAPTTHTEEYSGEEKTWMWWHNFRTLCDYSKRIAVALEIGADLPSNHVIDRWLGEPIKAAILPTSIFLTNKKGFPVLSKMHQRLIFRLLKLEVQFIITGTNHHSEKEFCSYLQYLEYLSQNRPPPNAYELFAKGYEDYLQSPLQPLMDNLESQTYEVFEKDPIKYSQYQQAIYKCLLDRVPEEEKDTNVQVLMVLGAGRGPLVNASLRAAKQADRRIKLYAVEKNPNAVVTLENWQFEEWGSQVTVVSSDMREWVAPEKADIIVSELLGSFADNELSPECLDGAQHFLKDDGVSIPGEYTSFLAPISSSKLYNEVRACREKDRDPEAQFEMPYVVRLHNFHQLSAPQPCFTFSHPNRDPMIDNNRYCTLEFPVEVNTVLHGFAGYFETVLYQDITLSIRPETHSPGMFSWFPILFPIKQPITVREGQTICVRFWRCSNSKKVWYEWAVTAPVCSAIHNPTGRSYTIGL
Sequence of PRMT5/MEP50 (Q9BQA1 whole entry partner): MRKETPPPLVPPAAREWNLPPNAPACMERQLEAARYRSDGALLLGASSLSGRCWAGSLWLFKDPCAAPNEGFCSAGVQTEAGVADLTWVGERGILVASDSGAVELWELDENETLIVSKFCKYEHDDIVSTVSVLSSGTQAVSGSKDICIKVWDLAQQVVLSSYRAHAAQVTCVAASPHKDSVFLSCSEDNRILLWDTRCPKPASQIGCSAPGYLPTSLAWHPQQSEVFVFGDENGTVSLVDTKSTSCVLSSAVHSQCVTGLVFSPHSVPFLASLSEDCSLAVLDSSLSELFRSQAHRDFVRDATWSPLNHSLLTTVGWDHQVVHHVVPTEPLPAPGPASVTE

The subject of assay [2] is HCT116 WT cells. In words: HCT116 proliferation assay, WT cells (CellTiter-Glo, 6 days). The class given is cell-based. The conditions noted are these: Homo sapiens, HCT-116, 144 h, read-out: Prolif_HCT116-WT IC50. In short, it runs like this:
(§1)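 Luminescent viability signal was measured after continuous drug exposure. Before dosing, cells attached overnight (37° C, 5% CO2) in RPMI 1640 + 10% FBS. Dosing used 1:3 steps over 8 or 9 points, starting at 1 or 10 µM, with DMSO-only wells as control.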
In general terms: ATP-based viability assays read luminescence as a measure of living cells.

In assay [3] the test system is HCT116 MTAP null cells. As to the kind of experiment: HCT116 proliferation assay, MTAP null cells (CellTiter-Glo, 6 days). The class given is cell-based. The conditions noted are these: HCT116-MTAP null, 144 h, read-out: Protif_ HCT116-MTAP null IC50. In short, it runs like this:
as §1

For `Cc1cc2cc(C(=O)N(Cc3ccc(Cl)c(C)n3)[C@H](C)c3ncccn3)ccc2nc1N` (single isomer, unassigned) [Example 468], in assay [1], the Ki (commonly a dissociation constant, usually derived from enzyme kinetics or from competition with a known ligand) is under 0.1 nM. The IC50 (commonly the concentration that gives 50% inhibition) in assay [2] came out at 853 nM; in assay [3], 34 nM.
The corresponding values for `COc1nc(C(F)(F)F)ccc1CN(C(=O)c1ccc2nc(N)c(C)cc2c1)[C@H](C)c1ncccn1` (single isomer, unassigned) [Example 469] are 0.03 nM, 592 nM and 33 nM.
On the same counts, the results for `Cc1nc(CN(C(=O)c2cnc3nc(N)c(Br)cc3c2)[C@H](C)c2ncccn2)ccc1Br` (single isomer, unassigned) [Example 470] are 0.09 nM, 2210 nM and 93 nM.
The corresponding values for `Cc1cc2cc(C(=O)N(Cc3ccc(C(F)(F)F)cn3)[C@@H]3COCC[C@@H]3O)ccc2nc1N` (single isomer, unassigned) [Example 471] are 0.11 nM, 3110 nM and 101 nM.
As to `Cc1cc2cc(C(=O)N(CC(C)C)[C@H](C)c3ccc(C(F)(F)F)cn3)ccc2nc1N` (single isomer, unassigned) [Example 472], the Ki in assay [1] stood at 1.04 nM. In addition, the IC50 in assay [2] was over 10000 nM; in assay [3] it was 889 nM.
On the same counts, the results for `Cc1cc2cc(C(=O)N(Cc3ccc(C#N)cn3)[C@H](C)c3ccccn3)ccc2nc1N` (single isomer, unassigned) [Example 473] are 0.17 nM, 5110 nM and 302 nM.
The corresponding values for `Cc1cc2cc(C(=O)N(Cc3ncc(Br)cc3C)[C@H](C)c3ncccn3)ccc2nc1N` (single isomer, unassigned) [Example 474] are 0.04 nM, 3270 nM and 88 nM.
For `Cc1cc2cc(C(=O)N(Cc3ccc(C#N)cc3)[C@H](C)c3ncccn3)ccc2nc1N` (single isomer, unassigned) [Example 475], the Ki in assay [1] turned out to be 0.07 nM. Besides, the IC50 in assay [2] was 4460 nM; in assay [3], 268 nM.
The corresponding values for `Cc1cc2cc(C(=O)N(Cc3ccc(C(F)(F)F)nc3)[C@H](C)c3ncccn3)ccc2nc1N` (single isomer, unassigned) [Example 477] are 0.11 nM, 5640 nM and 195 nM.
The corresponding values for `COc1ccc(CN(C(=O)c2cc3cc(C)c(N)nc3cc2F)[C@H](C)c2ncccn2)nn1` (single isomer, unassigned) [Example 479] are 0.09 nM, 1220 nM and 60 nM.
For `COc1ccc(CN(C(=O)c2cc3cc(C)c(N)nc3cc2F)[C@@H](C)c2ncccn2)nn1` (single isomer, unassigned) [Example 480], in assay [1], the Ki amounted to 1.49 nM. For the same compound, the IC50 in assay [2] was 1460 nM; in assay [3], 369 nM.
The corresponding values for `Cc1cc2cc(C(=O)N(Cc3ccc(C(F)(F)F)cn3)[C@H](C)c3ncc(F)cn3)cnc2nc1N` (single isomer, unassigned) [Example 481] are 0.18 nM, 4450 nM and 225 nM.
On the same counts, the results for `Cc1cc2cc(C(=O)N(Cc3ccc(C(F)(F)F)cn3)[C@H](C)c3cnccn3)ccc2nc1N` (single isomer, unassigned) [Example 482] are 0.1 nM, 4320 nM and 106 nM.
On the same counts, the results for `Cc1cc2cc(C(=O)N(Cc3cnc(C(F)(F)F)cn3)[C@H](C)c3ccc(F)cn3)ccc2nc1N` (single isomer, unassigned) [Example 483] are 1.02 nM, over 10000 nM and 515 nM.
With `Cc1cc2cc(C(=O)N(Cc3ccc(C(F)(F)F)cn3)[C@H](C)c3ncccn3)cnc2nc1N` (single isomer, unassigned) [Example 486], in assay [1], the Ki came out at 0.42 nM. Further, the IC50 in assay [2] was determined as 3830 nM; in assay [3] it was 123 nM.
Regarding `Cc1cc2cc(C(=O)N(Cc3ccc(OC(F)(F)F)cn3)[C@H](C)c3ncccn3)ccc2nc1N` (single isomer, unassigned) [Example 487], in assay [1], the Ki came out at 0.04 nM. Moreover, the IC50 in assay [2] is 730 nM; in assay [3], 26 nM.
With `Cc1cc2cc(C(=O)N(Cc3ccc(C(F)(F)F)nn3)[C@H](C)c3ncccn3)ccc2nc1N` (single isomer, unassigned) [Example 488], the Ki in assay [1] was 0.1 nM. Also, the results for the IC50 in assay [2] and in assay [3] were 1280 nM and 35 nM, respectively.
The corresponding values for `Cc1cc2cc(C(=O)N(Cc3ccc(OC(F)F)cn3)[C@H](C)c3ncccn3)ccc2nc1N` (single isomer, unassigned) [Example 491] are 0.1 nM, 1270 nM and 61 nM.
On to `Cc1cc2cc(C(=O)N(Cc3ncc(C(F)(F)F)s3)[C@H](C)c3ncccn3)ccc2nc1N` (single isomer, unassigned) [Example 492], for which the Ki in assay [1] worked out at 0.22 nM. Also, the IC50 in assay [2] stood at 3390 nM; in assay [3] it was 175 nM.
On the same counts, the results for `[2H]C([2H])([2H])Oc1ccc(CN(C(=O)c2ccc3nc(N)c(C)cc3c2)[C@H](C)c2ncccn2)nc1` (single isomer, unassigned) [Example 493] are 0.26 nM, 4080 nM and 146 nM.
Turning to `CC[C@H](c1ncccn1)N(Cc1ccc(C#N)cn1)C(=O)c1ccc2nc(N)c(C)cc2c1` (single isomer, unassigned) [Example 494], in assay [1], the Ki turned out to be 0.66 nM. Further, the IC50 is 5420 nM in assay [2] and 194 nM in assay [3].
On the same counts, the results for `CC[C@H](c1ncccn1)N(Cc1ccc(C(F)(F)F)nn1)C(=O)c1ccc2nc(N)c(C)cc2c1` (single isomer, unassigned) [Example 495] are 0.06 nM, 3170 nM and 86 nM.
The corresponding values for `Cc1cc2cc(C(=O)N(Cc3ccc(C(F)(F)F)cn3)[C@H](C)c3ncn(C)n3)ccc2nc1N` (single isomer, unassigned) [Example 496] are 0.17 nM, 462 nM and 23 nM.
Regarding `Cc1cc2cc(C(=O)N(Cc3ccc(C(F)(F)F)cn3)[C@H](C)c3ncn(C)n3)c(F)cc2nc1N` (single isomer, unassigned) [Example 497], the Ki in assay [1] is 0.19 nM. Moreover, the figures for the IC50 in assay [2] and in assay [3] were 462 nM and 35 nM, respectively.
The corresponding values for `Cc1cc2cc(C(=O)N(Cc3ccc(C(F)(F)F)cn3)[C@@H](C)c3ncn(C)n3)c(F)cc2nc1N` (single isomer, unassigned) [Example 498] are 2.43 nM, 2030 nM and 459 nM.
Turning to `CC[C@H](c1ncccn1)N(Cc1ccc(C(F)(F)F)cn1)C(=O)c1cc2cc(Br)c(N)nc2cn1` (single isomer, unassigned) [Example 499], the Ki in assay [1] was determined as 0.18 nM. Besides, the IC50 was over 10000 nM in assay [2] and 251 nM in assay [3].
On to `CC[C@H](c1ncccn1)N(Cc1ccc(C(F)F)cn1)C(=O)c1cnc2nc(N)c(Br)cc2c1` (single isomer, unassigned) [Example 500], for which, in assay [1], the Ki came to 0.52 nM. For the same compound, the IC50 was determined as 4590 nM in assay [2] and 187 nM in assay [3].
On the same counts, the results for `CC[C@H](c1ncccn1)N(Cc1ccc(C(F)F)cn1)C(=O)c1ccc2nc(N)c(Br)cc2c1` (single isomer, unassigned) [Example 501] are 0.02 nM, 5920 nM and 107 nM.
The corresponding values for `CC[C@H](c1ncccn1)N(Cc1cnc(C(F)(F)F)cn1)C(=O)c1ccc2nc(N)c(C)cc2c1` (single isomer, unassigned) [Example 516] are 0.14 nM, 3640 nM and 155 nM.
Take `Cc1cc2cc(C(=O)N(Cc3ccc(C(F)(F)F)nn3)[C@@H](c3ncccn3)C3CC3)ccc2nc1N` (single isomer, unassigned) [Example 518]: the Ki in assay [1] amounted to 0.11 nM. In addition, the IC50 in assay [2] came out at 851 nM; in assay [3], 47 nM.
Regarding `Cc1cc2cc(C(=O)N(Cc3ccc(C#N)cn3)[C@@H]3CCOc4cccnc43)ccc2nc1N` (single isomer, unassigned) [Example 519], in assay [1], the Ki came out at 0.13 nM. In addition, the IC50 came out at 1700 nM in assay [2] and 62 nM in assay [3].
Take `Cc1cc2cc(C(=O)N(Cc3ccc(C(F)(F)F)nn3)[C@@H]3CCOc4cccnc43)ccc2nc1N` (single isomer, unassigned) [Example 520]: the Ki in assay [1] turned out to be 0.04 nM. Also, the IC50 in assay [2] was found to be 737 nM; in assay [3] it was 24 nM.
